Patent US20200016059A1, “PERSONAL CARE COMPOSITIONS WITH GLUTATHIONE PRECURSOR COMPRISING NICOTINAMIDE AND AMINO ACIDS” (Conopco, Inc., d/ba UNILEVER, priority 2016, published 2020)

Tests used:
Format in all cases: cell-based
[1] = test system: Human Keratinocytes; assay: Reactive oxygen species (ROS) assay, CellROX green; conditions: for % Protection (improvement vs. vehicle control + menadione): ROS
Procedure: The medium was refreshed every other day. Subsequently, cells were trypsinized at 90% confluency and seeded at a density of 1-2×10^4 per well into 96-well plates with black wall and clear bottom. On the second day after seeding, cell medium was replaced with Hank's Balanced Salt Solution (HBSS) with or without menadione (10-25 uM), GAP (typically at 49 uM pyroglutamic acid, 60 uM cystine, 194 uM glycine), GAP vehicle (0.2 mM NaOH, pH 7.5), above-described additional test reagents, combinations of GAP with additional test reagents, or L-cystine esters alone and incubated for additional 18 hours. For ROS detection, CellROX green (Life Tech, Thermo Fisher Scientific, Rockford, USA) reagent was added into each well to a final concentration of 15-25 uM and incubated for additional 2-4 hours at 37° C. in a humidified incubator. The ROS fluorescence was detected using a Tecan microplate reader (Excitation/Emission=490/525). […] Where indicated, percent protection was calculated as a comparison to menadione alone treatment, using the measured relative fluorescent units in the following equation: ROS levels were evaluated together with cell viability because it is possible to get a false negative for ROS if treatment is so toxic that at the time of assay, cells are dead (and there are no longer any detectable ROS). Decrease in ROS levels is meaningful if cells are still viable.

[2] = test system: Aged Human Keratinocytes; assay: Glutathione assay (total glutathione, GSH-GSSG Glo) after menadione challenge; conditions: for % Protection (improvement vs. vehicle control + menadione): glutathione; for Mean (uM glutathione): Table 1A
From the text: The medium was refreshed every 2-3 days. Subsequently, cells were trypsinized at 90% confluency and seeded at a density of 1×10^4 per well into 96-well plates with white wall and clear bottom. […] The concentration of all amino acids constituting the GAP mixture used in this assay are designated in the data tables, and fully described in the abbreviations list below. After one or two hours of pre-treatment with GAP (and additional test reagents where described), keratinocytes were then challenged with 25 uM menadione (Sigma-Aldrich), a known inducer of oxidative stress. […] In summary, after cell treatment, the media was removed and replaced with a cell lysis reagent for 5 minutes at 20-25° C.; note, all remaining steps were also conducted at 20-25° C. Next, a luciferase generation reagent was added to each well and incubated for 30 minutes. Following this step, a luciferin detection reagent was added to each well and plates were incubated for 15 minutes. Finally, plates were then read for luminescence in a FlexStation 3 plate reader (Molecular Devices). Total glutathione levels were calculated after interpolation of glutathione concentrations from a standard curve. Experimental conditions were typically conducted in at least triplicate determinations. Statistical significance was calculated using 1-way ANOVA. Percent protection was calculated by using the calculated glutathione levels from each experiment in the following equation: […]

[3] = test system: Human Keratinocytes; assay: Cell viability assay (CCK-8); conditions: for % Protection (improvement vs. vehicle control + menadione): cell viability
Procedure: The medium was refreshed every other day. Subsequently, cells were trypsinized at 90% confluency and seeded at a density of 2×10^4 per well into 96-well transparent tissue culture plates. On the second day after seeding, cell medium was replaced with treatments as described above in ROS assay section. After 18 hours, […] (CCK-8) reagent (Dojindo, Kumamoto, Japan) was diluted 1:10 in HBSS and incubated with cells for 4 h at 37° C. in a humidified incubator. Optical absorption at 450 nm was measured using a Tecan Safire2 plate reader. […] Where indicated, percent protection was calculated as a comparison to menadione alone treatment, using the measured relative absorbance units in the following equation: […]

[4] = cystine ester at 20 uM + menadione
[5] = cystine ester at 40 uM + menadione
[6] = cystine ester at 80 uM + menadione
[7] = cystine ester at 160 uM + menadione
[8] = Table 1A glutathione, test reagent at 0.5 mM, alone or with GAP 10, + 25 uM menadione
[9] = nicotinamide / nicotinamide riboside / picolinamide at 0.5 mM, alone or with GAP 10, + 25 uM menadione
[10] = Table 1B, vs menadione alone, nicotinamide 10 mM, GAP typically 49/60/194 uM
[11] = Table 1A glutathione, test reagent at 5 mM, alone or with GAP 10, + 25 uM menadione
[12] = Table 1A glutathione, test reagent at 10 mM, alone or with GAP 10, + 25 uM menadione
[13] = nicotinamide / picolinamide at 5 mM, alone or with GAP 10, + 25 uM menadione
[14] = nicotinamide / picolinamide at 10 mM, alone or with GAP 10, + 25 uM menadione

SMILES	% Protection (improvement vs. vehicle control + menadione) [1, 4]	% Protection (improvement vs. vehicle control + menadione) [1, 5]	% Protection (improvement vs. vehicle control + menadione) [1, 6]	% Protection (improvement vs. vehicle control + menadione) [1, 7]	Mean (μm glutathione) [2, 6]	% Protection (improvement vs. vehicle control + menadione) [2, 6]	% Protection (improvement vs. vehicle control + menadione) [3, 4]	% Protection (improvement vs. vehicle control + menadione) [3, 5]	% Protection (improvement vs. vehicle control + menadione) [3, 6]	% Protection (improvement vs. vehicle control + menadione) [3, 7]	Cell viability (% of vehicle control) [3, 4]	Cell viability (% of vehicle control) [3, 5]	Cell viability (% of vehicle control) [3, 6]	Cell viability (% of vehicle control) [3, 7]	Mean (μm glutathione) [2, 5]	% Protection (improvement vs. vehicle control + menadione) [2, 5]	% Protection [2, 8]	Mean (uM glutathione) [2, 9]	% Protection [2, 11]	% Protection [2, 12]	further results
COC(=O)[C@@H](N)CSSC[C@H](N)C(=O)OC.Cl.Cl [CDME, L-Cystine dimethyl ester dihydrochloride]	18.2^2%	15.5^1,2%	13.3^1,2%	25.7^2%	1.09^1,2 μm	31^1,2%	30.2^1,2%	33.4^1,2%	24.6^1,2%	51.7^1,2%	90.9^1,2 % of vehicle control	93.1^1,2 % of vehicle control	87.0^1,2 % of vehicle control	105.9^1,2 % of vehicle control							
CCOC(=O)[C@@H](N)CSSC[C@H](N)C(=O)OCC.Cl.Cl [DEC, Diethyl L-cystinate dihydrochloride]	38.0^1,2%	43.6^1,2%	37.7^1,2%	32.4^1,2%	2.72^1,2 μm	93^1,2%	48.9^2%	72.7^1,2%	78.3^1,2%	65.9^1,2%	109.8^2 % of vehicle control	127.3^1,2 % of vehicle control	131.5^1,2 % of vehicle control	122.3^1,2 % of vehicle control	0.54^1,2 μm	13^1,2%					
CC(C)(C)OC(=O)[C@@H](N)CSSC[C@H](N)C(=O)OC(C)(C)C.Cl.Cl [DTBC, Ditert-butyl L-cystinate dihydrochloride]	2.2%	13.8^1,2%	28.4^1,2%	41.1^1,2%	0.19^1 μm	1^1%	6.0%	3.0%	−0.1%	41.3^2%	78.1^1 % of vehicle control	75.9^1 % of vehicle control	73.6^1 % of vehicle control	104.2^2 % of vehicle control	0.17^1 μm	0^1%					
NC(=O)c1ccc[n+]([C@@H]2O[C@H](CO)[C@@H](O)[C@H]2O)c1 [Nicotinamide riboside, nicotinamide riboside]																	0%	0.16 µM			
NC(=O)c1cccnc1 [Nicotinamide]																	0%	0.17 µM	0%	1%	ROS production (% of control) ([1]; Table 1B, + menadione, 18 h, nicotinamide 10 mM, GAP typically 49 uM pyroglutamic acid, 60 uM cystine, 194 uM glycine): 231.00^3 % of control; % Protection (ROS) [1, 10]: 17.70^3%; Mean (uM glutathione) [2, 13]: 0.14 µM; Mean (uM glutathione) [2, 14]: 0.20 µM; % Protection ([2]; Table 2A glutathione, nicotinamide at 5 mM, alone or with amino acids, + menadione): 3^1%; Mean (Glutathione Synthesis) ([2]; Table 2A, nicotinamide at 5 mM, alone or with amino acids, + menadione): 0.13^1; cell viability (% of control) ([3]; Table 1B, + menadione, 18 h, nicotinamide 10 mM, GAP typically 49/60/194 uM): 92.90^3 % of control; % Protection (cell viability) [3, 10]: 15.41^3%
NC(=O)c1ccccn1 [Picolinamide, picolinamide]																	2%	0.23 µM	0%	0%	Mean (uM glutathione) [2, 13]: 0.18 µM; Mean (uM glutathione) [2, 14]: 0.16 µM
